Values quoted from earlier work in patent US20120101089A1, “Anti-Emetic Substance” (priority 2010, published 2012).
“Also recorded” adds a separate entry of the source. Read-outs that look alike come from different tables or passages of the source.

Key:
[1] = for optimal dose for PONV treatment: children older than 2 years, intravenously
[2] = for PONV prevention versus metoclopramide 10 mg or placebo: granisetron 3 mg, tropisetron 5 mg before start of anesthesia (Naguib); for prevention of PONV symptoms: i.v. tropisetron 5 mg, droperidol 1.25 mg at the end of gynaecological surgery (Purhonen); for prevention of PONV versus placebo: ephedrine 0.5 mg/kg i.m., propofol […] i.v., laparoscopic surgery; for PONV prevention versus comparators: major gynecological surgery
[3] = for Adverse Effect: common adverse effects associated with single agents, listed per class; for sedation, droperidol versus ondansetron groups: i.v. ondansetron 4 mg, droperidol 20 μg/kg, outpatient gynaecological laparoscopy
[4] = not given; remark: listed apart in the source
[5] = not given; remark: listed apart in the source
[6] = 15 mg and 0.15 mg/kg i.v. immediately after umbilical cord clamped; lidocaine, morphine epidural

For `O=C(O[C@@H]1C[C@@H]2C[C@H]3C[C@H](C1)N2CC3=O)c1c[nH]c2ccccc12` [dolasetron, Dolasetron], the “clearance and half-life in children compared with young healthy adult volunteers” value (children) is given as “increased clearance and a shorter half-life” and the elimination half-life (parent compound) is given as 9 min.

In the case of `CN1[C@@H]2CC[C@H]1C[C@@H](OC(=O)c1c[nH]c3ccccc13)C2` [tropisetron, Tropisetron], the “optimal effective dose for treatment of PONV” value ([1]; intravenous, abdominal and non-abdominal surgeries (Alon)) is listed as 2 mg, the “prevention of PONV” value ([2]; 5 mg i.v. before start of anesthesia, breast and gynaecological surgery) is listed as “effective for prevention of PONV” and the “PONV prevention versus metoclopramide 10 mg or placebo” value ([2]; i.v. ondansetron 4 mg) is listed as “significantly greater anti-emetic effectiveness than metoclopramide or placebo”. For the same molecule, the “prevention of PONV symptoms” value [2] was “effectively prevented vomiting, but not nausea and retching”, the “Adverse Effect” value [3] was “Headache, dizziness” and the patients with response ([4]; single agent, first study) was “about 80%”.

In the case of `CN1[C@@H]2C[C@@H](OC(=O)[C@H](CO)c3ccccc3)C[C@H]1[C@@H]1O[C@@H]12` [scopolamine, Scopolamine], the “Adverse Effect” value [3] is given as “Sedation, dry mouth,”.

In the case of `OCCOCCN1CCN(C(c2ccccc2)c2ccc(Cl)cc2)CC1` (centres unmarked) [hydroxyzine, Hydroxyzine], the “incidence of PONV versus droperidol” value ([2]; i.m. 100 mg after induction of anesthesia, non-premedicated patients) is given as “decrease the incidence of PONV more effectively than intramuscular droperidol 2.5 mg” and the “Adverse Effect” value [3] is given as “Sedation, dry mouth,”.

In the case of `CC(C)c1cccc(C(C)C)c1O` [propofol], the “prevention of PONV by anesthetic used” value ([2]; 0.5 mg/kg i.v., outpatient laparoscopic cholecystectomy) is given as “more effective in preventing PONV after sevoflurane anesthesia than desflurane anesthesia”, the “plasma concentration necessary to obtain a 50% reduction in postoperative nausea” value ([2]; 10 mg i.v. bolus followed by infusion of 10 μg/kg/min) is given as 343 ng/L and the “overall occurrence of PONV versus 10% Intralipid” value ([2]; 20-hour postoperative 0.1 ml/kg/hour infusion) is given as “less”. For the same molecule, the “prevention of PONV versus placebo” value [2] was “more effective, with no haemodynamic changes, than placebo”, the “effect on PONV” value ([2]; i.v. bolus 0.1 mg/kg followed by constant infusion of 1 mg/kg/hour) was “no effect on PONV” and the “PONV prophylaxis versus thiopentone 1.0 mg/kg” value ([2]; i.v. subhypnotic 0.5 mg/kg, first 6 hours after middle ear surgery) was “significantly better PONV prophylaxis against retching and vomiting”. The “prevention of PONV versus ondansetron” value ([2]; intraoperative intravenous, first 6 hours postoperatively) was “equally as effective as intravenous ondansetron 4 mg”.

For `OCCN1CCN(CCCN2c3ccccc3Sc3ccc(Cl)cc32)CC1` [perphenazine], the “efficacy in preventing PONV versus comparator” value ([2]; children after tonsillectomy, prophylactic 70 μg/kg) is given as “more effective than dexamethasone 150 μg/kg; also recorded: equally as effective as ondansetron 150 μg/kg”, the emesis after tonsillectomy ([2]; paediatric patients, prophylactic i.v. 70 μg/kg) is given as “decreased emesis” and the “Adverse Effect” value [3] is given as “Sedation, EPS, hypotension,”.

In the case of `Cc1ncc2n1-c1ccc(Cl)cc1C(c1ccccc1F)=NC2` [midazolam, Midazolam], the “prevention of vomiting after tonsillectomy” value ([2]; 75 μg/kg i.v. after induction of anesthesia, children) is listed as “effective for the prevention of vomiting”.

For `O=C(CCCN1CC=C(n2c(=O)[nH]c3ccccc32)CC1)c1ccc(F)cc1` [droperidol], the “prevention of PONV” value ([2]; 5 μg/kg i.v. 1 hour before end of anesthesia, children 11 to 15 years) is given as “effective in preventing PONV”, the “best anti-emetic effectiveness among groups” value ([2]; 1.25 mg dose (Fortney)) is given as “best anti-emetic effectiveness” and the “prevention of PONV versus i.v. droperidol 1.25 mg or ondansetron 4 mg” value ([2]; i.v. 0.625 mg at start of anesthesia, outpatient gynecological operations) is given as “as effective”. The “PONV prevention, low versus higher dose” value ([2]; i.v. 0.625 mg immediately following intubation) was “as effective as intravenous droperidol 1.25 mg”, the “prevention of PONV versus comparators” value ([2]; i.v. 1.25 mg before end of general anesthesia, female patients, elective orthopaedic surgery) was “significantly superior to intravenous metoclopromide 10 mg and a saline placebo” and the “prevention of PONV versus comparators” value ([2]; i.v. 1.25 mg immediately before end of anesthesia, day-stay and major gynaecological surgery) was “superior to intravenous metoclopramide 10 mg, intravenous domperidone 5 mg and an intravenous saline placebo”. For the same molecule, the “patients with no emesis versus i.v. ondansetron 8 mg” value ([2]; i.v. 2.5 mg, women, inpatient minor gynaecological surgery) was “more patients”, the “prevention of PONV symptoms” value [2] was “failed to prevent any PONV symptoms” and the “anti-emetic effectiveness versus haloperidol” value ([2]; intramuscular 5 mg) was “equivalent anti-emetic effectiveness to intramuscular haloperidol 2 mg”. The “sedation or other adverse effects” value ([3]; 1.25 mg dose (Fortney)) was “no increase in sedation or other adverse effects”, the “Adverse Effect” value [3] was “Sedation, EPS,” and the “adverse effects (dystonic reactions, EPS, sedation)” value ([3]; i.v. 0.625 mg and 1.25 mg) was “few adverse effects”. The “sedation or other adverse effects” value ([3]; i.v. 0.625 mg or 1.25 mg, outpatient gynecological operations) was “no increase in sedation or other adverse effects”, the anxiety and drowsiness ([3]; i.v. 1.25 mg at the end of gynaecological surgery (Purhonen)) was “increase in anxiety and drowsiness” and the “adverse effects versus studies with dose less than 2.5 mg” value ([3]; i.v. 2.5 mg) was “more adverse effects (i.e. sedation, dizziness)”. For the same molecule, the “sedation, droperidol versus ondansetron groups” value [3] was “no difference” and the “duration of action / effect” value (following administration, route not stated) was ≤ 24 h.

For `CCN(CC)CCNC(=O)c1cc(Cl)c(N)cc1OC` [metoclopramide, Metoclopramide], the “treatment of PONV versus comparators” value ([1]; 10 mg intravenously) is given as “as effective as intravenous droperidol 1.25 mg and more effective than intravenous propofol 10 mg”, the “effect on emetic effects of opioids” value ([5]; additional 10 to 20 mg i.m. at the end of the operation) is given as “reduced the emetic effects of pethidine, but had less effect when morphine was given” and the “effect on pre-anaesthetic emetic effects of pethidine” value ([5]; preoperative 10 and 20 mg intramuscularly) is given as “abolished the pre-anaesthetic emetic effects of pethidine”. The “Adverse Effect” value [3] was “Sedation, EPS, restlessness,” and the “incidence of nausea and vomiting” value [6] was “effectively reduce the incidence of nausea and vomiting”.

For `O=C(CCCN1CCC(O)(c2ccc(Cl)cc2)CC1)c1ccc(F)cc1` [haloperidol], the “effectiveness in PONV” value ([2]; 7 μg/kg i.v. and 0.5 to 4.0 mg i.m. for prevention, 1 mg i.m. for treatment) is listed as “effective in PONV, with little sedative effect”, the “Adverse Effect” value [3] is listed as “Sedation, EPS,” and the duration of action (intramuscular) is listed as “approximately 12 hours”. The “onset time / onset of action” value (intramuscular) was “approximately 30 minutes”.

In the case of `CN1CCN(C(c2ccccc2)c2ccccc2)CC1` [cyclizine, Cyclizine], the “Adverse Effect” value [3] is given as “Sedation, dry mouth,”.

In the case of `CN[C@@H](C)[C@H](O)c1ccccc1` [ephedrine], the “prevention of PONV versus placebo” value [2] is listed as “more effective, with no haemodynamic changes, than placebo”.

In the case of `Cc1nccn1CC1CCc2c(c3ccccc3n2C)C1=O` (centres unmarked) [ondansetron, Ondansetron], the “optimal dose for PONV treatment” value ([1]; <40 kg) is given as 0.1 mg/kg, the “optimal dose for PONV treatment” value ([1]; >40 kg) is given as 4 mg and the “treatment of PONV versus comparators” value ([1]; i.v. 4 mg, following gynecological laparoscopy (Polati)) is given as “better efficacy than intravenous metoclopramide 10 mg or placebo”. The “control of PONV by repeat dose” value ([1]; repeat i.v. 4 mg in PACU after failed prophylaxis with i.v. 4 mg (Kovac)) was “does not appear to offer additional control of PONV”, the “optimal effective dose for PONV” value ([2]; adults, intravenously at the start of anesthesia) was 4 mg and the “optimal effective dose for PONV” value ([2]; adults, orally 1 to 2 hours before anesthesia) was 8 mg. The “optimal dose for PONV prevention” value ([2]; children older than 2 years, orally) was 0.1 mg/kg, the “prevention of vomiting versus comparators” value ([2]; i.v. 0.1 mg/kg, children undergoing adenotonsillectomy) was “more effective in preventing vomiting than dimenhydrimate 0.5 mg/kg or placebo” and the “efficacy by timing of administration” value ([2]; i.v. 4 mg, end of surgery versus before induction of anesthesia) was “significantly better when administered at the end of surgery”. The “patients with emesis versus i.v. metoclopramide 10 mg or droperidol 0.625 mg” value ([2]; i.v. 8 mg prior to anesthesia (Alon and Himmelseher)) was “fewer”, the “difference between ondansetron and dexamethasone administered alone” value ([2]; i.v. ondansetron 4 mg, dexamethasone 8 mg, major gynaecological surgery) was “No difference” and the “PONV prevention versus metoclopramide 10 mg or placebo” value ([2]; i.v. ondansetron 4 mg) was “significantly greater anti-emetic effectiveness than metoclopramide or placebo”. The “incidence of adverse events after additional dose” value ([3]; additional 4 mg postoperatively) was “did not result in an increased incidence of adverse events”, the “Adverse Effect” value [3] was “Headache, dizziness” and the “sedation, droperidol versus ondansetron groups” value [3] was “no difference”. The “control of vomiting and nausea during subsequent days of chemotherapy” value ([4]; single agent (Barbounis)) was “progressive decline” and the “cases in which effective” value ([4]; single agent, day 1 of chemotherapy administration (Barbounis)) was “about 76%”.

For `CN(C)CCCN1c2ccccc2Sc2ccc(Cl)cc21` [chlorpromazine], the “Adverse Effect” value [3] is given as “Sedation, EPS, hypotension,”.

In the case of `O=C(OC1CC2CC3CC(C1)N2CC3O)c1c[nH]c2ccccc12` (centres unmarked) [hydrodolasetron], the “share of the anti-emetic effect” value (active metabolite of dolasetron) is given as 87%, the mean half-life (intravenous form) is given as ~8.3 h and the mean half-life (oral form) is given as “approximately 7.1 hours”.

In the case of `CC(CN1c2ccccc2Sc2ccccc21)N(C)C` (centres unmarked) [promethazine], the “Adverse Effect” value [3] is listed as “Sedation, EPS, hypotension,”.

For `CN1C2CCCC1CC(NC(=O)c1nn(C)c3ccccc13)C2` (centres unmarked) [granisetron, Granisetron], the “PONV prevention versus comparators” value ([2]; 40 μg/kg immediately prior to induction, women during menstruation (Fujii)) is listed as “more effective than droperidol 25 μg/kg or metoclopramide 0.2 mg/kg”, the “optimal dose for PONV prevention” value ([2]; adults and children, intravenous, other studies) is listed as 0.04 mg/kg and the “optimum effective prophylactic dose” value ([2]; adults, i.v. immediately before the start of anesthesia, 0.1, 1 and 3 mg compared) is listed as 1 mg. For the same molecule, the “PONV prevention versus comparators” value ([2]; i.v. 2.5 mg immediately prior to anesthesia, history of postoperative emesis and motion sickness) was “more effective than droperidol 1.25 mg or metoclopramide 10 mg”, the “PONV prevention versus metoclopramide 10 mg or placebo” value ([2]; i.v. ondansetron 4 mg) was “significantly greater anti-emetic effectiveness than metoclopramide or placebo” and the “Adverse Effect” value [3] was “Headache, dizziness”.

For `CCN(CC)C(=O)C1CN2CCc3cc(OC)c(OC)cc3C2CC1OC(C)=O` (centres unmarked) [benzquinamide, Benzquinamide], the “Adverse Effect” value [3] is given as “Sedation, EPS, restlessness,”.

For `CS(=O)(=O)O.O=C(OC1C[C@@H]2CC3C[C@H](C1)N2CC3=O)c1c[nH]c2ccccc12` (some centres unmarked) [dolasetron mesylate], the “patients with some emesis control” value ([4]; single-arm study) is listed as 65%.
